According to patent US20050267124A1, “Pharmaceutical compositions comprising NEP-inhibitors, inhibitors of the endogenous producing system and PDEV inhibiitors” (Solvay Pharmaceuticals GmbH, priority 2004, published 2005):

Assays:
Male Sprague-Dawley rats = assay: Big-ET-induced hypertension following intravenous bolus administration in rats; format: in vivo, rat; details: for Maximal Big-ET-induced increase in SAP: anaesthetised rats, i.v. bolus sildenafil 1 mg/kg and/or compound of Formula IV 10 μmol/kg, 0.5 nmol/kg Big-ET 8 min later, mean increase from baseline
Experimental: 1. Big-ET-Induced Hypertension Following Intravenous Bolus Administration in Rats
Male Sprague-Dawley rats (˜[…], fed a standard chow diet, fasted for 18 h prior to the experiments, with free access to drinking water) were anaesthetised with 1 ml/kg Rompun/Ketavet 1:1, and then transferred to servo-controlled, heated tables to maintain body temperature at 37° C. A pressure transducer (Statham) was connected to one carotid artery for measurement of arterial blood pressure. Both jugular veins were cannulated for compound and Big-ET-infusion (Big-ET=endogenous precursor of endothelin), respectively. After an equilibration period of 20 minutes (=min), the animals received either vehicle (10% arlatone G, 10% ethanol, 80% H2O), sildenafil (1 mg/kg), compound of Formula IV (10 μmol/kg), or a combination of sildenafil+compound of Formula IV intravenously (over 1 min in a total volume of 2 ml/kg body weight). 8 min later, 0.5 nmol/kg Big-ET was infused (over 1 min; Big-ET was from Bachem, Heidelberg). Systolic (SAP) and diastolic arterial blood pressures and heart rate were recorded every 5 min for the next 15 min.
The maximal pressor and bradycardic effects were typically reached within 5 min following Big-ET administration.
(§1) The results are expressed as mean±SEM of the maximal systolic blood pressure increase (from baseline) observed after the Big-ET challenge (n: number of animals). 2. Effect on Blood Pressure in Spontaneously Hypertensive Rats

[1] = test system: spontaneously hypertensive rats (SHR); assay: Effect on blood pressure in spontaneously hypertensive rats (telemetry); format: in vivo, rat; details: i.v. sildenafil 3 mg/kg, alone or with compound of Formula IV 10 μmol/kg, change vs. baseline averaged over last 15 min of 30 min after treatment
From the text: as §1
Male spontaneously hypertensive rats (=SHR, insulin resistant strain from Charles River; aged 6 months) were equipped with telemetry transmitters for continuous monitoring of blood pressure and heart rate. Telemetry transmitters for continuous monitoring of blood pressure, heart rate and locomotor activity (TA11PA-C40, Data Sciences, USA) were implanted intraabdominally under inhalative halothane anesthesia. A midline abdominal incision was made, and the abdominal aorta was visualized by removal of retroperitoneal fat and connective tissue. A ligature was placed caudal of the renal arteries, the aorta was punctured with a 22G needle, and the catheter was advanced into the aorta. The entry point was sealed with tissue adhesive (Vetbond®, 3M, USA), the ligature was removed, and the abdominal incision was closed. […]
On the day of the experiments, blood pressure was first monitored for 30 min under baseline (untreated) conditions before a group of animals received sildenafil (3 mg/kg), and another one sildenafil (3 mg/kg) combined with compound of Formula IV (10 μmol/kg) via injection into the caudal vein. Blood pressure was then measured for another 30 min. […]

SMILES: CCCc1nn(C)c2c(=O)[nH]c(-c3cc(S(=O)(=O)N4CCN(C)CC4)ccc3OCC)nc12 [Sildenafil, sildenafil]
- time for which the drop in blood pressure was stable (Male Sprague-Dawley rats; after i.v. sildenafil 1 mg/kg, until timepoint of Big-ET application): at least 8 min
- Maximal Big-ET-induced increase in SAP (Male Sprague-Dawley rats): 42.6 mm Hg
- drop in systolic blood pressure as compared to baseline (Male Sprague-Dawley rats; immediately after i.v. administration, before the Big-ET challenge, sildenafil 1 mg/kg, compound of Formula IV 10 μmol/kg): 15±3 mm Hg
- Average change in systolic blood pressure [1]: −10.5 mm Hg

SMILES: O=C(O)CN1C(=O)C(NC(=O)C2(CC(CCc3ccccc3)C(=O)O)CCCC2)CCc2ccccc21 (stereo not drawn) [compound of Formula IV, 2-[1-(1-carboxymethyl-2-oxo-2,3,4,5-tetrahydro-1H-benzo[b]azepin-3-ylcarbamoyl)-cyclopentylmethyl]-4-phenyl-butyric acid]
- Maximal Big-ET-induced increase in SAP (Male Sprague-Dawley rats): 43.0 mm Hg
- effect on the hypotensive action of sildenafil (Male Sprague-Dawley rats; compound of Formula IV 10 μmol/kg i.v. with sildenafil 1 mg/kg, before Big-ET challenge): not reinforce the hypotensive action of sildenafil
